Data as given in patent EP2435019B1, “DODECA-2E,4E-DIENE AMIDES AND THEIR USE AS MEDICAMENTS AND COSMETICS” (Dr. August Wolff GmbH & Co. KG Arzneimittel, priority 2009, dated 2010).

How the values were obtained:
[1] = molecular target: T1, FAAH (Sus scrofa, UniProt Q9TUI8); experiment: Fatty acid amide hydrolase (FAAH) inhibition, pig brain homogenate (assay D); type: biochemical; settings: for FAAH inhibition at 1 µM: pig brain homogenate (assay D)
T1 construct: 165 µl of diluted pig brain homogenate; from tissue; host or cells: pig brain homogenate
T1 sequence (Q9TUI8 1-579): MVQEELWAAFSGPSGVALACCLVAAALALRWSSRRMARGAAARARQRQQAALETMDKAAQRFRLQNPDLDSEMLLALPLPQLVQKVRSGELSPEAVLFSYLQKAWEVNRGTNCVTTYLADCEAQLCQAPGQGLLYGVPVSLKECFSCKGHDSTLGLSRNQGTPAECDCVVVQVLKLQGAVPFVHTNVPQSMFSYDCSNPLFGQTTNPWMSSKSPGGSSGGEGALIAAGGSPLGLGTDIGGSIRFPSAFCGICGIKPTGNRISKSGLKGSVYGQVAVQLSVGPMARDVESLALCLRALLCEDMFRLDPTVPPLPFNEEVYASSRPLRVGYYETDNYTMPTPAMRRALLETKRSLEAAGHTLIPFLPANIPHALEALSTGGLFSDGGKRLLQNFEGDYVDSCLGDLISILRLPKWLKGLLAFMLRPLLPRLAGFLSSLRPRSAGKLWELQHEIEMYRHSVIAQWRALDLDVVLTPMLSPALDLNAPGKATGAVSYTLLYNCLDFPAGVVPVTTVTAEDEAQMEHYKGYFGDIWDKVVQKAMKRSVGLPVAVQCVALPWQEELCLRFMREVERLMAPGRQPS
Method: FAAH activity was assessed using pig brain homogenate according to the method described by Omeir et al., Arachidonoyl ethanolamide-[1,2-14C] as a substrate for anandamide amidase. Life Sci. 1995;56(23-24):1999-2005, and adapted by Fowler et al., Ibuprofen inhibits rat brain deamidation of anandamide at pharmacologically relevant concentrations. Mode of inhibition and structure-activity relationship. J Pharmacol Exp Ther. 1997 Nov;283(2):729-34. Briefly, 10 µl of test compounds at the adequate concentration or solvent were incubated at 37°C for 20 min with 165 µl of diluted pig brain homogenate in 10 mM Tris-HCl and 1 mM EDTA, pH 7.6 (corresponding to 100 µg/ml of total protein), 1% w/v fatty acid free BSA (Sigma, San Louis, MO, US) and 25 µl of a mixture 1:1 of nonradioactive AEA [^3H]-AEA (60 Ci mmol^-1) (concentration in the assay was 2 µM). Successively, 400 µl of a mixture 1:1 (v/v) of methanol:chloroform was added at each sample and, after vigorous vortexing, aqueous and organic phases were separated by centrifugation at 10000 rpm for 10 min. The radioactivity associated to the [^3H]-ethanolamine (produced by FAAH-catalysed breakdown of [^3H]-AEA) was measured upon addition of 3 ml of Ultima Gold scintillation liquid (Perkin Elmer, Waltham, MA, US) to 200 µl of the aqueous (upper) phase, using a Beckman LS6500 scintillation counter. Results were expressed as % of FAAH activity vs. pig brain homogenate treated only with solvent.

[2] = molecular target: T2, CB1 (Homo sapiens, UniProt P21554); experiment: Radioligand displacement assay on CB1 receptor; type: binding; settings: for affinity towards CB1 (in words): summary of Table 3
T2 construct: purchased Perkin Elmer RBHCB1M
Method: (§1) For the CB1 receptor, binding experiments were performed in the presence of 0.39 nM of the radioligand [^3H]CP55,940 (168 Ci/mmol) (Perkin Elmer, Waltham, MA, US) at 30°C in siliconized glass vials together with 7.16 µg of membrane recombinantly over-expressing CB1 (No. RBHCB1M, Perkin Elmer, Waltham, MA, US), which was resuspended in 0.2 mL (final volume) binding-buffer (50 mM TRIS-HCl, 2.5 mM EGTA, 5 mM MgCl2, 0.5 mg/mL fatty acid free BSA, pH 7.4). Test compounds were present at varying concentrations and the nonspecific binding of the radioligand was determined in the presence of 10 µM CP55,940 (Tocris Cookson Ltd., Bristol, UK). After 1.5 h incubation, the suspension was rapidly filtered through 0.05% polyethylenimine pre-soaked GF/C glass fiber filters on a 96-well cell harvester and washed nine times with 0.5 mL ice-cold washing-buffer (50 mM TRIS-HCl, 2.5 mM EGTA, 5 mM MgCl2, 2% BSA, pH 7.4). Radioactivity on filters was measured with a Beckman LS 6500 scintillation counter in 3 mL Ultima Gold scintillation liquid (Perkin Elmer, Waltham, MA, US). Data collected from three independent experiments performed in triplicates were normalized between 100% and 0% specific binding for [^3H]CP55,940. […] Derived from the dissociation constant (KD) of [^3H]CP55,940 and the concentration-dependent displacement (IC50 value), inhibition constants (Ki) of competitor compounds were calculated using the Cheng-Prusoff equation [Ki = IC50/(1+ L/KD)].

[3] = molecular target: CB2 (Homo sapiens, UniProt P34972); experiment: Radioligand displacement assay on CB2 receptor; type: binding; design: purchased Perkin Elmer RBXCB2M; settings: for affinity towards CB2 (in words): summary of Table 3
Method: as §1
For CB2-receptor binding studies 3.8 µg of membrane recombinantly over-expressing CB2 (No. RBXCB2M, Perkin Elmer, Waltham, MA, US) were resuspended in 0.6 mL binding buffer (see above) together with 0.11 nM of the radioligand [^3H]CP55,940. The CB2-binding assay was conducted in the same manner as for CB1.

[4] = Critical micelle concentration (CMC) measurement, dye micellization; type: physicochemical; settings: fluorescein dye micellization in water, pH 6.9, room temperature
Method: Dye micellization was carried out with a modified version of the method described by Eliyahu et al., Novel dextran-spermine conjugates as transfecting agents: comparing water-soluble and micellar polymers. […] Experiments were carried out on 96-well microtiter plates (excitation at 485 nm, emission at 535 nm). Since the emission of fluorescein is pH-dependent, the pH of the mixture was kept constant at 6.9. The CMC range was determined as the concentration range where the first statistically significant increase in fluorescence was detected.

[5] = tested on: Arachidonoylethanolamide Transport (AEAT); experiment: Cellular uptake of [3H]-AEA in U937 cells (assay C); type: cell-based; settings: Homo sapiens, U-937; [3H]-AEA uptake, assay C (Tables 2 and 3)
[6] = molecular target: T3, human recombinant Fatty acid amide hydrolase (Homo sapiens, UniProt O00519); experiment: Inhibition of human recombinant FAAH, fluorometric method (assay G); type: biochemical; settings: human recombinant enzyme, AMC-anandamide substrate (assay G)
T3 sequence (O00519 1-579): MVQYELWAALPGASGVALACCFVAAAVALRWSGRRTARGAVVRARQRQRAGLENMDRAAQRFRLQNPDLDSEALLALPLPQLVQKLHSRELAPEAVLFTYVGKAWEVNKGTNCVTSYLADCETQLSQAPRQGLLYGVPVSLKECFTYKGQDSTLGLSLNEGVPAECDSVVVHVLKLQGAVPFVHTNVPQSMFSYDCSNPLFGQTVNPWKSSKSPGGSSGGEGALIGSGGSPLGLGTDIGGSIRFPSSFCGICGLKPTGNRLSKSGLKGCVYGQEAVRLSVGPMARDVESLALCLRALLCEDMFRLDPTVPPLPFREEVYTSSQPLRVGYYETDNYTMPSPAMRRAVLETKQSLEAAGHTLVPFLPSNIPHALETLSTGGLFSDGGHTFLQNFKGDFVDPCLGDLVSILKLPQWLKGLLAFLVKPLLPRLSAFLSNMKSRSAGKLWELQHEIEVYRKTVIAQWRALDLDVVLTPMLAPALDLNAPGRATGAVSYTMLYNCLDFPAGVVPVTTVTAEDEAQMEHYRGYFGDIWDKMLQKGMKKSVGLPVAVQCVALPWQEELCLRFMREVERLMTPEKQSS
Method: FAAH activity is measured using the modified method described by Omeir et al., Arachidonoyl ethanolamide-[1,2-14C] as a substrate for anandamide amidase. Life Sci. 1995;56(23-24):1999-2005. Human recombinant enzyme is preincubated with reference compound (methylarachidonlyfluorophosphonate, MAFP) and test compounds for 30 min at room temperature in 50 mM Tris containing 1 mM EDTA and 0.1% fatty acid free BSA (pH 8.0). Substrate (7-amino-4-methyl coumarin-arachidonamide, AMC-anandamide) is then added and incubated for 30 min at room temperature. The reaction is stopped by the addition of 2.5 µl of 10 µM URB597. Released 7-amino-4-methyl coumarin (AMC) is detected by fluorometry in order to ascertain any interactions of test compounds with the FAAH enzyme.

[7] = tested on: Anandamide transport; experiment: Anandamide transport (human) cellular functional assay (assay F); type: cell-based; settings: human U-937 cells, 0.1 µM [3H]-Anandamide, 20 min (assay F)
Method: Anandamide transport is determined using human U-937 cells as receptor source. [3H]-Anandamide (0.1 Ci/mmol), final concentration 0.1 µM is used as substrate. AM-404 is used as reference compound. Reactions are carried out in KRH buffer (pH 7.4) at 37°C for 20 min. The reaction is terminated by rapid vacuum filtration onto glass fiber filters. Radioactivity trapped onto filters is determined and compared to control values in order to ascertain any interactions of test compound with anandamide uptake (Hiiliard C.J. The movement of N-arachidonylethanolamide (anandamide) across cellular membranes. Chem. Physics Lipids. 2008;108:123-134, with modifications).

T2 sequence (P21554 whole entry): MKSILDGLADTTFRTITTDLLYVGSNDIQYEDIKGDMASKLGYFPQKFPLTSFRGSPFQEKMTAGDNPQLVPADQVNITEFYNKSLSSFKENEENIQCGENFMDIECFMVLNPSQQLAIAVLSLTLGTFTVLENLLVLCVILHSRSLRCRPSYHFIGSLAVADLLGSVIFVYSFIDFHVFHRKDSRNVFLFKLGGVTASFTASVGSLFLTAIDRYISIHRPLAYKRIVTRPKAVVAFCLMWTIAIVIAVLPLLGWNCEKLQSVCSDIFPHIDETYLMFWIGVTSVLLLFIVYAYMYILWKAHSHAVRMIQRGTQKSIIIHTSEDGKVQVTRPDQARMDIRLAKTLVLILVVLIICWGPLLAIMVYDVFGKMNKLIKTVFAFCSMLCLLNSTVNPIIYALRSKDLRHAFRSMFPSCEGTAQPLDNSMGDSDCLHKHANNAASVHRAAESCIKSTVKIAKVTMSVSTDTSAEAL
CB2, sequence (P34972 whole entry): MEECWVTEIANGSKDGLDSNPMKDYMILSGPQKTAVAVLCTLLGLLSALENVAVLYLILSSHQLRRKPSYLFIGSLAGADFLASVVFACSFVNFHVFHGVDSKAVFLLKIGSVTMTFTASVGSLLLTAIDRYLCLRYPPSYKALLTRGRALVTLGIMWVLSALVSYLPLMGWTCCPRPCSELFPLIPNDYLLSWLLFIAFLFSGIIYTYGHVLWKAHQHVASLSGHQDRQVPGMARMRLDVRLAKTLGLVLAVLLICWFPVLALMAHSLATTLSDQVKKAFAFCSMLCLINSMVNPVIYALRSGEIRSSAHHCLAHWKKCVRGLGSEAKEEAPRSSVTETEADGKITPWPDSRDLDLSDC

Row | Compound | FAAH inhibition at 1 µM [6] | AEAT inhibition at 1 µM [7] | further results
1 | CCCCCCC/C=C/C=C/C(=O)NCC(C)CC (racemic) [Compound B, (2E,4E)-N-(2-methylbutyl)dodeca-2,4-diene amide] |  |  | FAAH inhibition at 1 µM [1]: <10 % of control; Ki [2]: 1510 ± 214 nM; affinity towards CB1 (in words) [2]: moderate affinity; Ki [3]: 1100 ± 84 nM; affinity towards CB2 (in words) [3]: moderate affinity; CMC [4]: >5 µM; EC50 [5]: > 10000 nM
2 | CCCCCCC/C=C/C=C/C(=O)NCCC(C)C [Compound C, (2E,4E)-N-isopentyldodeca-2,4-diene amide] |  |  | FAAH inhibition at 1 µM [1]: <10 % of control; Ki [2]: > 20000 nM; affinity towards CB1 (in words) [2]: no affinity; Ki [3]: 1455 ± 14 nM; affinity towards CB2 (in words) [3]: moderate affinity; CMC [4]: >5 µM; EC50 [5]: > 10000 nM
3 | CCCCCCC/C=C/C=C/C(=O)NCc1ccoc1 [Example 4, (2E,4E)-N-(furan-3-ylmethyl)dodeca-2,4-diene amide] |  |  | inhibition at 2 µM ([1]; read-out: max. inhibition of FAAH activity): 40%; CMC [4]: < 3 µM
4 | CCCCCCC/C=C/C=C/C(=O)NCc1cccn1C [Example 5] |  |  | inhibition at 1 µM ([1]; read-out: maximal inhibition of FAAH activity): 32%; CMC [4]: < 1 µM
5 | CCCCCCC/C=C/C=C/C(=O)NCc1ccc(OC)cc1 [Example 7, (2E,4E)-N-(4-methoxybenzyl)dodeca-2,4-diene amide] | 6 % of control | 28 % of control | effect on FAAH activity in combination with the FAAH inhibitor URB597 ([1]; Figure 3, low nM concentrations): synergistic effects
6 | CCCCCCC/C=C/C=C/C(=O)NCCc1ccco1 [Example 16] | 42 % of control | 57 % of control | EC50 [5]: 890 ± 400 nM
7 | CCCCCCC/C=C/C=C/C(=O)NCCc1ccsc1 [Example 19] | 53 % of control | 34 % of control | EC50 [5]: 520 ± 470 nM
8 | CCCCCCC/C=C/C=C/C(=O)Nc1nccs1 [Example 20] | -16 % of control | 47 % of control | EC50 [5]: 780 ± 250 nM
9 | CCCCCCC/C=C/C=C/C(=O)Nc1ccccc1 [Example 24] | 2 % of control | 30 % of control | 
10 | CCCCCCC/C=C/C=C/C(=O)NCc1ccccc1 [Example 25] | 2 % of control | 47 % of control | 
11 | CCCCCCC/C=C/C=C/C(=O)Nc1nc2ccccc2s1 [Example 35] | 61 % of control | 42 % of control | 
12 | CCCCCCC/C=C/C=C/C(=O)Nc1ccc(C2=NCCS2)cc1 [Example 37] | 9 % of control | 38 % of control | 
13 | CCCCCCC/C=C/C=C/C(=O)NCc1nnn(C(=O)N(C)C)n1 [Example 39] | 101 % of control | 120 % of control | 
14 | CCCCCCC/C=C/C=C/C(=O)NCC(C)O (stereo not drawn) [Example 41] | 45 % of control | 27 % of control | 
15 | CCCCCCC/C=C/C=C/C(=O)NCCc1ccnc(OC)c1 [Example 47] | 6 % of control | 50 % of control | 
16 | CCCCCCC/C=C/C=C/C(=O)NC(CO)Cc1cccs1 (stereo not drawn) [Example 49] | 25 % of control | 25 % of control | 
17 | CCCCCCC/C=C/C=C/C(=O)NCC(O)c1ccc(OC)cc1 (stereo not drawn) [Example 56] | -1 % of control | 36 % of control | 
18 | CCCCCCC/C=C/C=C/C(=O)NCCc1ccccn1 [Example 68] | -2 % of control | 41 % of control | 
19 | CCCCCCC/C=C/C=C/C(=O)Nc1nc2cc(C)c(C)cc2s1 [Example 72] | 30 % of control | 37 % of control | 
20 | CCCCCCC/C=C/C=C/C(=O)Nc1ccc(Oc2ccc(C(F)(F)F)cc2)cc1 [Example 84] | 30 % of control | 30 % of control | 
